Read-outs that look alike come from different tables or passages of the source.
Columns and labels:
[1] = tested on: Hela (human cervical tumor); test: MTT proliferation inhibition, Hela cells; type: cell-based; conditions: Homo sapiens, HeLa, read-out: Inhibitory rate (%)
Source text: (§1) The Silica Gel Column Chromatography and Countercurrent Chromatography preparation techniques were used to obtain Friedelin monomer extracted from EZR2002 for the sake of evaluating its anti-tumor activity further. The purity of this monomer determined by GC-MS analysis was 90.5%.
(§2) A375 (human malanoma), L929 (mouse lung epithelial tumor), Hela (human cervical tumor) and THP-1 (human macrophage tumor) cell lines were used for active filtration test in this experiment. Among these cell lines, A375, L929 and Hela were adherent cells while THP-1 was a kind of suspended cell.
(§3) All cells were maintained in the RPMI-1640 culture medium supplemented with 10% fetal calf serum, penicillin (100 U/mL), streptomycin (100 μg/mL) and 0.2% NaHCO3. These supplements were dissolved in deionized water and 0.22 μm filtration membrane was used for filter sterilization. The fetal calf serum was inactivated 30 min at 56° C. prior to an experiment. Cells were cultured in a humidified incubator of 5% CO2 at 37° C.
(§4) A375, L929 and Hela cells in logarithmic growth phases were seeded at a cell density of approximately 5×10^4 cells/mL in 96 pore plates (100 μL/well). Furthermore, THP-1 cell was seeded at a cell density of approximately 1×10^5 cells/mL because it was smaller than others. Samples were added in suspended cells after culturing 4 h and in adherent cells after culturing 12 h. Friedelin was dissolved in DMSO in advance and then in the culture medium with the ultrasonic treatment, where the final concentration of the solvent in the culture medium was <0.1% (v/v). Sample was added for 7.5, 15, 30, 60, 120, 240, 480 and 960 μmol/L. Each level had four parallel pores and a negative control. The cells were incubated for 24 and 48 h and then 15 μL/well MTT solvent (5 mg/mL) was added.
(§5) The cells were incubated for 48 h, followed by centrifugation at 1500 rpm for 5 min. The supernatant was removed and 150 μL/well DMSO was added, followed by micro-vibrator shocking for 10 min and crystal dissolving completely. The absorbance (OD value) was measured by enzyme-labeled meter at 492 nm. Furthermore, the inhibitory rate of cell proliferation and the IC50 value of friedelin were counted by using Bliss method.
(§6) The de-methyl-cantharidin was taken as the positive control and the inhibitory rate of A375, L929 and Hela cells were measured by adding de-methyl-cantharidin (120 μmol/L) for 24 and 48 h (Table 8). Furthermore, the corresponding data of Friedelin were counted.

A375 (human malanoma) = test: MTT proliferation inhibition, A375 cells; type: cell-based; conditions: Homo sapiens, read-out: Inhibitory rate (%)
Source text: as §1, §2, §3, §4, §5, §6

[2] = tested on: L929 (mouse lung epithelial tumor); test: MTT proliferation inhibition, L929 cells; type: cell-based; conditions: Mus musculus, read-out: Inhibitory rate (%)
Source text: as §1, §2, §3, §4, §5, §6

[3] = tested on: A549 human lung adenocarcinoma cells; test: Growth inhibition of A549 cells (SRB protein coloring method, 72 h); type: cell-based
Experimental: Sulforhodamine B (SRB) protein staining method and microculture tetrozolium (MTT) reduction method were used to measure the growth inhibitory effects of tumor cells by EZR2002 with the test objects of P388 mouse leukemia cells and A549 human lung adenocarcinoma cells, respectively. The effect time was 48 h and 72 h, respectively.
(§7) 10^−5, 10^−6 and 10^−7 mol/L were determined as three critical levels. Invalid, weak effect and strong effect were determined as three evaluation indices.

[4] = tested on: P388 mouse leukemia cells; test: Growth inhibition of P388 cells (MTT reduction method, 48 h); type: cell-based
Experimental: […] growth […] The effect time was 48 h and 72 h, respectively.
as §7

[5] = compounds from bamboo shoot sheath; Sakai 1999; cited from earlier work

Which results are given for O=C1OC(=O)C2C3CCC(O3)C12 (centres unmarked) [De-methyl-cantharidin, de-methyl-cantharidin, reference compound]?
inhibition at 120 µM ([1]; 24 h): 34.1%; inhibition at 120 µM ([1]; 48 h): 43.7%; inhibition at 120 µM (A375 (human malanoma); A-375, 24 h): 38.6%; inhibition at 120 µM (A375 (human malanoma); A-375, 48 h): 50.4%; inhibition at 120 µM ([2]; L929, 24 h): 40.5%; inhibition at 120 µM ([2]; L929, 48 h): 34.4%

With CC[C@]1(O)C[C@H]2CN(CCc3c([nH]c4ccccc34)[C@@](C(=O)OC)(c3cc4c(cc3OC)N(C=O)[C@H]3[C@@](O)(C(=O)OC)[C@H](OC(C)=O)[C@]5(CC)C=CCN6CC[C@]43[C@@H]65)C2)C1 [Vincristin] as the compound, how does the Evaluation [3] read?
The Evaluation was “Weak”.

What about the “Inhibition rate (%)” value ([3]; sample level 10^−4 mol/L) of the same compound?
Its value is 71.3%.

And the “Inhibition rate (%)” value ([3]; sample level 10^−5 mol/L)?
Its value is 71.6%.

What about the “Inhibition rate (%)” value ([3]; sample level 10^−6 mol/L) of the same compound?
Its value is 66.5%.

What about the “Inhibition rate (%)” value ([3]; sample level 10^−7 mol/L) of the same compound?
Its value is 44.3%.

And the “Inhibition rate (%)” value ([3]; sample level 10^−8 mol/L)?
The value was 9.6%.

What about the Evaluation [4] of the same compound?
Its Evaluation is “Strong”.

What about the “Inhibition rate (%)” value ([4]; sample level 10^−4 mol/L) of the same compound?
The value was 93.1%.

What about the “Inhibition rate (%)” value ([4]; sample level 10^−5 mol/L) of the same compound?
Its value is 94.3%.

And the “Inhibition rate (%)” value ([4]; sample level 10^−6 mol/L)?
Its value is 94.8%.

And the “Inhibition rate (%)” value ([4]; sample level 10^−7 mol/L)?
Its value is 94.7%.

What about the “Inhibition rate (%)” value ([4]; sample level 10^−8 mol/L) of the same compound?
The value was 93.2%.

For O=C1c2c(O)cc(O)cc2O[C@H](c2ccc(O)c(O)c2)[C@H]1O [taxifolin], which “anti-oxidative activity relative to that of α-tocopherol” value [5] is on record?
The value was about 1%.

Which “anti-oxidative activity relative to that of α-tocopherol” value [5] does the source give for COc1cc(-c2cc(=O)c3c(O)cc(O)cc3o2)cc(OC)c1O [tricin] here?
Its value is about 10%.

From US7811997B2, “Composition containing total triterpenoid sapogenins extracted from bamboo, and the preparation method and use thereof” (priority 2002, dated 2010)
